Literature values, collected in patent US20100086495A1, “COMPOSITIONS AND METHODS FOR ENHANCING TRANSMUCOSAL DELIVERY” (DERMA-YOUNG LTD., priority 2007, published 2010).

Details: vitamin B12 deficient subjects

increase in serum concentration levels of the vitamin, sublingual versus conventional oral vitamin B12: same extent of increase
Substance: vitamin B12
